{"source": "patent US20170183306A1", "about": "“CYCLIC COMPOUNDS HAVING A 1,3 DIAMINO-FUNCTIONALITY FOR USE IN THE TREATMENT OF HIV INFECTION” (Universite Paris Descartes, priority 2014, published 2017)", "key": {"[1]": {"details": "cited from earlier work"}, "[2]": {"system": "HIV in T CD4+ cells from HIV-infected patients", "assay": "HIV production by CD4+ T cells of HIV-infected, antiretroviral-treated, aviremic patients (real time PCR)", "assay_type": "cell-based, HIV-1", "details": "one line per patient; for Compound: ratio of the viral load of interest/viral load of negative control: compound alone", "description": "For experiments using primary cells obtained from HIV-infected, antiretroviral-treated, aviremic patients, total CD4+ cells are isolated by a MACS) Whole Blood MicroBead Technology (Miltenyi). Briefly, T CD4+ cells from whole blood are magnetically labeled with MACS MicroBeads and specific antibodies. Cells are separated in a MACS Column placed in a MACS Separator. The flow-through fraction can be collected as the negative fraction depleted of the labeled cells. The column is removed from the separator and the retained cells are eluted as the enriched, positively selected cell fraction. The T CD4+ cells were then cultured with a T cell activation/expansion kit (Miltenyi). The cells are activated for up to 3 days with Anti-Biotin MACSiBead Particle conjugated to monoclonal anti-biotin antibodies (anti CD2-biotin, […] and anti CD28-biotin). Expansion is achieved by adding IL-2 and fresh medium for 4 days. Then, these T CD4+ cells are considered as positive culture. A negative control was the same proportion of cells cultured without stimuli like antibodies and IL-2. The T CD4+ cells were cultured with compounds alone or in combination with antibodies or IL-2. The HIV production in cell culture media was measured by real time PCR (Cobas AmpliPrep/Cobas Taqman HIV-1 test, V2.0, Roche). The results are expressed in table 2 as a ratio of the viral load of interest/viral load of negative control or as a ratio of the viral load of interest/viral load of positive control."}, "[3]": {"system": "wild type NL4-3 virus (HIV-1) in HeLa-p4 cells", "assay": "HeLa-p4 single-cycle HIV-1 infectivity, beta-galactosidase CPRG test", "assay_type": "cell-based", "details": "for activity at 50 µM: read-out: Hela-p4 CPRG 50 μM; for activity at 100 µM: read-out: Hela-p4 CPRG 100 μM", "method_in_brief": "(§1)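 HeLa CD4 LTR-LacZ cells infected with 1 ng p24 of wild-type NL4-3 alongside graded compound concentrations; β-galactosidase measured 48 h post-infection by CPRG colorimetry, expressed as percent of untreated virus control. Viability assessed by MTS absorbance at […].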"}, "J-Lat cells": {"system": "J-Lat cells", "assay": "J-Lat cells, percentage of GFP-positive cells by cytometry", "assay_type": "cell-based", "details": "50 μM; 24 h, compound alone", "method_in_brief": "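J-Lat cells (5.105 per well, RPMI/10% FBS) treated 24 h with compound alone at 37 °C. After PFA fixation, GFP-positive cells counted by flow cytometry and reported as percentage of living fluorescent cells.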"}, "HeLa-p4 cells": {"system": "HeLa-p4 cells", "assay": "Cell viability assay (MTS) on HeLa-p4 cells", "assay_type": "cell-based", "details": "cell viability", "method_in_brief": "as §1"}, "HIV": {"system": "HIV", "details": "cited from earlier work"}, "[4]": {"system": "Laï virus in MT2 cells (human lymphocytic cell line)", "assay": "MT2 cells infected with Laï virus, real-time PCR of viral RNA of the supernatant", "assay_type": "cell-based, HIV-1", "details": "for viral RNA of the supernatant, 10 μM / viral RNA of the supernatant, 25 μM / viral RNA of the supernatant, 50 μM / viral RNA of the supernatant, 100 μM: 3 days of culture, control = virus without any added compound; for viral replication in human lymphocytes (in words): summary of Table 3", "description": "In an experiment, MT2 cells (human lymphocytic cell line) are infected with the Laï virus to a multiplicity of infection of 0.3 and incubated with compounds A, B, C or D at four different concentrations.\nAfter 3 days of culture, real-time PCR quantification of the viral RNA of the supernatant is performed (COBAS Ampliprep/COBAS TaqMan HIV-1 assay, version 2).\nThe results are expressed as percentage of control (virus without any added compound) in Table 3."}, "[5]": {"details": "Human immunodeficiency virus 1, NL43, HeLaP4, 50 μM, 48 hours after infection, control = NL4-3 virus alone"}, "[6]": {"details": "Human immunodeficiency virus 1, NL43, HeLaP4, 100 μM, 48 hours after infection, control = NL4-3 virus alone"}, "[7]": {"details": "Human immunodeficiency virus 1, NL43, HeLaP4, 48 hours after infection, control = NL4-3 virus alone"}, "[8]": {"details": "Human immunodeficiency virus 1, NL43, HeLaP4, 48 h"}}, "note": "Like-named read-outs stand apart in the source and are kept apart here.", "data": [{"smiles": "Cc1[nH]c2ccccc2c1CCNCc1ccc(/C=C/C(=O)NO)cc1", "note": "[LBH589]", "values": [{"measurement": "adverse effects in clinical trials", "setting": "[1]; in vivo", "result": "important adverse effects"}]}, {"smiles": "O=C(CCCCCCC(=O)Nc1ccccc1)NO", "note": "[vorinostat]", "values": [{"measurement": "adverse effects in clinical trials", "setting": "[1]; first results of on-going clinical trials", "result": "important adverse effects"}]}, {"smiles": "CC(C)(C)OC(=O)N[C@@H]1CNC[C@H](NC(=O)OC(C)(C)C)C1", "note": "[ECO02-051-C]", "values": [{"measurement": "Compound: ratio of the viral load of interest/viral load of negative control", "setting": "[2]", "result": 1}, {"measurement": "Compound + IL2: ratio of the viral load of interest/viral load of negative control", "setting": "[2]; compound in combination with IL2", "result": 1}, {"measurement": "activity at 50 µM", "setting": "[3]; [5]", "result": 124, "unit": "%"}, {"measurement": "activity at 100 µM", "setting": "[3]; [6]", "result": 200, "unit": "%"}, {"measurement": "activity at 200 µM", "setting": "[3]; [7]", "result": 397, "unit": "%"}, {"measurement": "J-lat 50 μM", "setting": "J-Lat cells", "result": "1.1 percentage of the living fluorescent cells"}, {"measurement": "Hela-p4 MTS 50 μM", "setting": "HeLa-p4 cells", "result": 95}, {"measurement": "Hela-p4 MTS 100 μM", "setting": "HeLa-p4 cells", "result": 96}, {"measurement": "Hela-p4 MTS 200 μM", "setting": "HeLa-p4 cells", "result": 77}]}, {"smiles": "CCN(CC)C(=S)SSC(=S)N(CC)CC", "note": "[Disulfirame]", "values": [{"measurement": "capacity to induce HIV replication in clinical trial", "setting": "HIV", "result": "low capacity to induce HIV replication"}]}, {"smiles": "N[C@@H]1CNC[C@H](N)C1", "note": "[ECO01-025-C2, piperidine-3,5-diamine]", "values": [{"measurement": "Compound: ratio of the viral load of interest/viral load of negative control", "setting": "[2]", "result": 1}, {"measurement": "activity at 50 µM", "setting": "[3]; [5]", "result": 166, "unit": "%"}, {"measurement": "activity at 100 µM", "setting": "[3]; [6]", "result": 280, "unit": "%"}, {"measurement": "activity at 200 µM", "setting": "[3]; [7]", "result": 317, "unit": "%"}, {"measurement": "J-lat 50 μM", "setting": "J-Lat cells", "result": "0.7 percentage of the living fluorescent cells"}, {"measurement": "Hela-p4 MTS 50 μM", "setting": "HeLa-p4 cells", "result": 104}, {"measurement": "Hela-p4 MTS 100 μM", "setting": "HeLa-p4 cells", "result": 79}, {"measurement": "Hela-p4 MTS 200 μM", "setting": "HeLa-p4 cells", "result": 70}]}, {"smiles": "C/C=C1\\NC(=O)[C@H]2CSSCC/C=C/[C@H](CC(=O)N[C@H](C(C)C)C(=O)N2)OC(=O)[C@H](C(C)C)NC1=O", "note": "[Romidepsin]", "values": [{"measurement": "adverse effects in clinical trials", "setting": "[1]; in vivo", "result": "important adverse effects"}]}, {"smiles": "N[C@@H]1C[C@H](N)CN(c2ccc(NC(=O)c3ccccc3)c(O)c2)C1", "note": "[Compound C]", "values": [{"measurement": "viral RNA of the supernatant, 10 μM", "setting": "[4]", "result": "21200 percentage of control"}, {"measurement": "viral RNA of the supernatant, 25 μM", "setting": "[4]", "result": "83500 percentage of control"}, {"measurement": "viral RNA of the supernatant, 50 μM", "setting": "[4]", "result": "66400 percentage of control"}, {"measurement": "viral RNA of the supernatant, 100 μM", "setting": "[4]", "result": "931700 percentage of control"}, {"measurement": "viral replication in human lymphocytes (in words)", "setting": "[4]", "result": "induce viral replication at an extremely high level"}]}, {"smiles": "COc1ccc(CCN2C[C@H](N)C[C@H](N)C2)cc1OC", "note": "[Compound A]", "values": [{"measurement": "viral RNA of the supernatant, 10 μM", "setting": "[4]", "result": "130 percentage of control"}, {"measurement": "viral RNA of the supernatant, 25 μM", "setting": "[4]", "result": "60 percentage of control"}, {"measurement": "viral RNA of the supernatant, 50 μM", "setting": "[4]", "result": "50 percentage of control"}, {"measurement": "viral RNA of the supernatant, 100 μM", "setting": "[4]", "result": "73200 percentage of control"}, {"measurement": "viral replication in human lymphocytes (in words)", "setting": "[4]", "result": "induce viral replication at an extremely high level"}]}, {"smiles": "COC(=O)C(Cc1ccccc1)N1C[C@H](N)C[C@H](N)C1", "note": "(some centres unmarked) [Compound B]", "values": [{"measurement": "viral RNA of the supernatant, 10 μM", "setting": "[4]", "result": "420 percentage of control"}, {"measurement": "viral RNA of the supernatant, 25 μM", "setting": "[4]", "result": "40 percentage of control"}, {"measurement": "viral RNA of the supernatant, 50 μM", "setting": "[4]", "result": "70 percentage of control"}, {"measurement": "viral RNA of the supernatant, 100 μM", "setting": "[4]", "result": "32400 percentage of control"}, {"measurement": "viral replication in human lymphocytes (in words)", "setting": "[4]", "result": "induce viral replication at an extremely high level"}]}, {"smiles": "CN(C)c1ccc(CN2C[C@H](N)C[C@H](N)C2)cc1", "note": "[ECO02-069-B, 1-(4-(dimethylamino)benzyl)piperidine-3,5-diamine]", "values": [{"measurement": "activity at 50 µM", "setting": "[3]; [8]", "result": 86, "unit": "%"}, {"measurement": "activity at 100 µM", "setting": "[3]; [8]", "result": 88, "unit": "%"}, {"measurement": "J-lat 50 μM", "setting": "J-Lat cells", "result": "1.3 percentage of the living fluorescent cells"}, {"measurement": "Hela-p4 MTS 50 μM", "setting": "HeLa-p4 cells", "result": 99}, {"measurement": "Hela-p4 MTS 100 μM", "setting": "HeLa-p4 cells", "result": 94}]}]}
